Results: patent US20050250137A1, “Molecular targets of cancer and aging” (priority 2002, published 2005)

Test: GoMiner gene ontology analysis of differentially regulated genes
Design: species or system human
[1] = Biological process: Bbiological—process unknown, GO 0000004, Total 232
[2] = Biological process: Cell adhesion, GO 0007155, Total 361
[3] = Biological process: Cell death, GO 0008219, Total 272
[4] = Biological process: Cell differentiation, GO 0030154, Total 106
[5] = Biological process: Cell motility, GO 0006928, Total 222
[6] = Biological process: Cell organization and biogenesis, GO 0016043, Total 282
[7] = Biological process: Cell proliferation, GO 0008283, Total 667
[8] = Biological process: Cell-cell signaling, GO 0007267, Total 365
[9] = Biological process: Metabolism, GO 0008152, Total 3192
[10] = Biological process: Response to endogenous stimulus, GO 0009719, Total 134
[11] = Biological process: Response to extracellular stimulus, GO 0009991, Total 10
[12] = Biological process: Response to stress, GO 0006950, Total 501
[13] = Biological process: Signal transduction, GO 0007165, Total 1321
[14] = Biological process: Transport, GO 0006810, Total 873
[15] = Biological process: alcohol metabolism, GO 0006066, Total 151
[16] = Biological process: amine metabolism, GO 0009308, Total 175
[17] = Biological process: amino acid and derivative metabolism, GO 0006519, Total 149
[18] = Biological process: anti-apoptosis, GO 0006916, Total 59
[19] = Biological process: apoptotic program, GO 0008632, Total 26
[20] = Biological process: biosynthesis, GO 0009058, Total 525
[21] = Biological process: carbohydrate metabolism, GO 0005975, Total 228
[22] = Biological process: catabolism, GO 0009056, Total 450
[23] = Biological process: cell cycle, GO 0007049, Total 442
[24] = Biological process: cell migration, GO 0016477, Total 39
[25] = Biological process: cell surface receptor linked signal transduction, GO 0007166, Total 588
[26] = Biological process: cell—cell adhesion, GO 0016337, Total 124
[27] = Biological process: cytokinesis, GO 0000910, Total 64
[28] = Biological process: cytoplasm organization and biogenesis, GO 0007028, Total 166
[29] = Biological process: electron transport, GO 0006118, Total 150
[30] = Biological process: energy pathways, GO 0006091, Total 158
[31] = Biological process: induction of apoptosis, GO 0006917, Total 83
[32] = Biological process: induction of programmed cell death, GO 0012502, Total 83
[33] = Biological process: intracellular signaling cascade, GO 0007242, Total 444
[34] = Biological process: intracellular transport, GO 0046907, Total 258
[35] = Biological process: ion transport, GO 0006811, Total 320
[36] = Biological process: lipid metabolism, GO 0006629, Total 299
[37] = Biological process: lymphocyte differentiation, GO 0030098, Total 22
[38] = Biological process: nuclear organization and biogenesis, GO 0006997, Total 109
[39] = Biological process: nucleobase, nucleoside, nucleotide and nucleic acid metabolism, GO 0006139, Total 1351
[40] = Biological process: organic acid metabolism, GO 0006082, Total 226
[41] = Biological process: phosphorus metabolism, GO 0006793, Total 423
[42] = Biological process: protein metabolism, GO 0019538, Total 1170
[43] = Biological process: protein transport, GO 0015031, Total 223
[44] = Biological process: regulation of cell proliferation, GO 0042127, Total 175
[45] = Biological process: regulation of metabolism, GO 0019222, Total 32
[46] = Biological process: response to DNA damage stimulus (under Response to endogenous stimulus), GO 0006974, Total 133
[47] = Biological process: response to DNA damage stimulus (under Response to stress), GO 0006974, Total 133
[48] = Biological process: response to abiotic stimulus, GO 0009628, Total 224
[49] = Biological process: response to biotic stimulus, GO 0009607, Total 552
[50] = Biological process: response to external stimulus, GO 0009605, Total 813
[51] = Biological process: response to pest/pathogen/parasite, GO 0009613, Total 287
[52] = Biological process: response to wounding, GO 0009611, Total 173
[53] = Biological process: taxis, GO 0042330, Total 77
[54] = Biological process: vesicle-mediated transport, GO 0016192, Total 167

Nc1ncn([C@H]2C[C@H](O)[C@@H](CO)O2)c(=O)n1 [5-aza-dC, 5-aza-2′-deoxycytidine]
10: 5-aza-dC Up [33]
11: 5-aza-dC Down [7] | 5-aza-dC Up [8] | 5-aza-dC Up [38]
5: 5-aza-dC Up [4] | 5-aza-dC Up [18] | 5-aza-dC Down [41]
4: 5-aza-dC Up [15] | 5-aza-dC Up [21] | 5-aza-dC Up [29] | 5-aza-dC Up [36]
33: 5-aza-dC Up [13]
30: 5-aza-dC Up [50]
26: 5-aza-dC Up [49]
41: 5-aza-dC Up [39]
3: 5-aza-dC Down [12] | 5-aza-dC Up [16] | 5-aza-dC Up [17] | 5-aza-dC Up [19] | 5-aza-dC Up [31] | 5-aza-dC Up [32] | 5-aza-dC Up [37] | 5-aza-dC Up [40] | 5-aza-dC Down [44]
21: 5-aza-dC Up [12]
78: 5-aza-dC Up [9]
14: 5-aza-dC Up [23] | 5-aza-dC Up [25] | 5-aza-dC Up [52]
6: 5-aza-dC Up [1] | 5-aza-dC Down [13] | 5-aza-dC Down [20] | 5-aza-dC Up [34] | 5-aza-dC Down [39]
1: 5-aza-dC Down [4] | 5-aza-dC Down [5] | 5-aza-dC Up [5] | 5-aza-dC Down [10] | 5-aza-dC Up [11] | 5-aza-dC Down [14] | 5-aza-dC Down [16] | 5-aza-dC Down [17] | 5-aza-dC Down [19] | 5-aza-dC Up [24] | 5-aza-dC Up [26] | 5-aza-dC Up [28] | 5-aza-dC Up [30] | 5-aza-dC Down [34] | 5-aza-dC Down [36] | 5-aza-dC Down [40] | 5-aza-dC Down [43] | 5-aza-dC Up [45] | 5-aza-dC Down [46] | 5-aza-dC Down [47] | 5-aza-dC Down [49] | 5-aza-dC Down [51] | 5-aza-dC Down [52]
12: 5-aza-dC Up [6] | 5-aza-dC Up [14]
0: 5-aza-dC Down [2] | 5-aza-dC Down [6] | 5-aza-dC Down [8] | 5-aza-dC Down [11] | 5-aza-dC Down [18] | 5-aza-dC Down [24] | 5-aza-dC Down [26] | 5-aza-dC Up [27] | 5-aza-dC Down [28] | 5-aza-dC Down [31] | 5-aza-dC Down [32] | 5-aza-dC Down [35] | 5-aza-dC Down [37] | 5-aza-dC Down [38] | 5-aza-dC Down [45] | 5-aza-dC Down [48] | 5-aza-dC Down [53] | 5-aza-dC Down [54]
2: 5-aza-dC Down [1] | 5-aza-dC Down [3] | 5-aza-dC Up [10] | 5-aza-dC Down [15] | 5-aza-dC Down [21] | 5-aza-dC Down [22] | 5-aza-dC Down [25] | 5-aza-dC Down [27] | 5-aza-dC Down [29] | 5-aza-dC Down [30] | 5-aza-dC Down [33] | 5-aza-dC Up [35] | 5-aza-dC Up [46] | 5-aza-dC Up [47] | 5-aza-dC Down [50] | 5-aza-dC Up [54] | 5-aza-dC Down (Cellular component: Cellular—component unknown, GO 0008372, Total 266)
8: 5-aza-dC Up [44] | 5-aza-dC Up [48]
15: 5-aza-dC Up [3]
17: 5-aza-dC Up [51]
7: 5-aza-dC Up [2] | 5-aza-dC Up [20] | 5-aza-dC Down [23] | 5-aza-dC Up [43] | 5-aza-dC Up [53]
27: 5-aza-dC Up [42]
18: 5-aza-dC Up [7] | 5-aza-dC Down [9]
9: 5-aza-dC Up [22] | 5-aza-dC Up [41] | 5-aza-dC Down [42]
